Assay [1] has as its system Collagen-Induced Arthritis. The assay can be described thus: Collagen-Induced Arthritis Assay, hindpaw volume. In kind it is in vivo, rat (inbred Lewis male). Conditions: Rattus norvegicus, po, oral gavage, 5 days per week, 28 or 30 days, rats. Here is the method:
Collagen-Induced Arthritis Assay
Type II collagen was isolated from bovine articular cartilage by the method of Strawich and Nimni Biochemistry, 10, 3905 (1971)]. The collagen was dissolved in 0.1 M acetic acid and stored at -20° C. Type II collagen solution was diluted to 2 mg/ml concentration and emulsified thoroughly with an equal volume of incomplete Freund's adjuvant (ICFA). The emulsion containing approximately 0.5 mg of collagen was injected intradermally on day 0 to groups of 6 inbred Lewis male rats (Charles River Breeders; 170-200 g) at various sites in the dorsal area. The hindpaw volumes of each rat were measured and recorded three times a week throughout the test period to assess the inflammatory reaction. The test group animals received compounds under test as suspensions in carboxymethylcellulose vehicle, by oral gavage, 5 days per week (Monday-Friday), beginning on day 1. Control animals received vehicle without a test compound. At the end of the test (day 28 or 30), the blood of these animals was drawn by cardiac puncture and the serum anti-type II collagen antibody levels were estimated by passive hemagglutination technique, using glutaraldehyde treated sheep red cells, to which type II collagen is conjugated [Avramaes et al., Immunochemistry, 6, 67 (1969); Andriopoulos et al., Arth. Rheum. 19, 613 (1976)]. The cellular response or delayed-type hypersensitivity response to type II collagen was measured by the radiometric ear index assay [Kostiala, Immunology, 33, 561 (1977)]. In certain experiments, the bone damage occurring because of immunization with type II collagen and the effects of drugs were determined from the radiographs of the hindpaws of two or three representative animals from each group. Injections of ICFA without collagen II were employed in some rats as a negative control; these rate received only carbomethoxycellulose vehicle during the test.
The % inhibition was calculated according to the following formula: [formula] where Vt is the hindpaw volume of a compound-treated animal (test group), Vc is the hindpaw volume of a non-compound-treated animal (carbomethoxycellulose vehicle only--the control group), and Vv is the hindpaw volume of a vehicle (carbomethoxycellulose) treated animal which received ICFA with no collagen II (negative control group).

The next assay has as its target T1, 5-lipoxygenase (Cavia porcellus, UniProt A0A286X958).
T1 construct: incubating 0.2 ml of the supernatant obtained from the PMNL sonicate with the test compound; from tissue; host or cells: casein-elicited guinea pig peritoneal polymorphonuclear leukocytes (PMNL, more than 95 percent of the cells), sonicated, 30,000 x g supernatant
T1 sequence (A0A286X958 1-674): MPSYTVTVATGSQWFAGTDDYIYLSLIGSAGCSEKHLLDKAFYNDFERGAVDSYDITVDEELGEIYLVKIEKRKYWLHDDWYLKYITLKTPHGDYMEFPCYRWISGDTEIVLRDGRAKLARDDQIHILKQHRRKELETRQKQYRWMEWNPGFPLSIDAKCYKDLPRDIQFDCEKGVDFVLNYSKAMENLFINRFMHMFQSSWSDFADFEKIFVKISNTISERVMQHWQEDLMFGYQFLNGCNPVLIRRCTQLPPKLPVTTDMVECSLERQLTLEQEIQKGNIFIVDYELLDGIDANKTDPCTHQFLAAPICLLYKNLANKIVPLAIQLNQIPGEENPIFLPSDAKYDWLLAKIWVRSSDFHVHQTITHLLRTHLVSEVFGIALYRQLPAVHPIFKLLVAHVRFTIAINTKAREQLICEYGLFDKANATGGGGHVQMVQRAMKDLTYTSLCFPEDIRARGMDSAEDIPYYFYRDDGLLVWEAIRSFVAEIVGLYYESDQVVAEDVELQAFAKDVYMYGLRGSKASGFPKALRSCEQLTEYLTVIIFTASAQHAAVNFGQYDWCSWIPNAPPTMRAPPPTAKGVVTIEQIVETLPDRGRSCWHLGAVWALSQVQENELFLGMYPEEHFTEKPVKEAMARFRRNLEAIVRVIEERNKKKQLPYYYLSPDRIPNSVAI
Nature of the assay: 5-Lipoxygenase (5-LPO) Assay, inhibition of 5-HETE formation in PMNL sonicate supernatant. In kind it is biochemical, guinea pig. Conditions: for IC50: guinea pig PMNL sonicate supernatant, 37° C., 5 μM 14C-arachidonic acid. How it is done:
5-Lipoxygenase (5-LPO) Assay
Ten milliliters of a 2% casein solution were injected intraperitoneally into guinea pigs weighing 250-300 gm. After 16-18 hours, the guinea pigs were killed by suffocation in a carbon dioxide chamber. The peritoneal cavity was infused with 70 ml of saline and 40-50 ml of the fluid were recovered from the cavity. After centrifugation, cell pellets were washed twice in Hank's balanced salt solution (HBSS) without calcium ion.
The cells were then suspended in 5 ml of sodium phosphate buffer, pH 7.1 containing 1 mM EDTA, and 0.1% gelatin. About 20-30×10^7 cells were obtained from one guinea pig.
The PMNL suspension was disrupted by five 1/2 second pulse sonications at the setting of 3 in a Branson Sonifier, Model 350, equipped with a microtip. The sonicates were combined and centrifuged at 30,000× g for 10 minutes. The supernatant was kept frozen at -70° C. until use.
Enzyme activity was determined by assaying for 5-HETE formation by first incubating 0.2 ml of the supernatant obtained from the PMNL sonicate with the test compound, 1 mM CaCl2, 2 mM ATP, and 1 mM GSH for 5 minutes at 37° C. The mixture is treated with 5 μM ^14 C-arachidonicacid and incubated at 37° C. an additional 10 minutes. The enzyme reaction was then stopped by the addition of 10 μl of 1M citric acid and 10μl of an alcohol solution containing 20 mg/ml each of indomethacin and butylated hydroxyanisole (BHA). The reaction mixture was spotted (50 μl on a silica gel plate (Baker TLC plate S1250-PA-19C) and subjected to TLC in a solvent system of ethyl acetate/2,2,4-trimethylpentane/glacial acetic acid/water (90:50:20:100).
The radioactivity of the arachidonic acid and its metabolites (5-HETE and LTB4) was visualized from a developed x-ray film which had been exposed to the TLC plate 1-2 days. The amount of 5-HETE formed was quantitated by scraping the silica gel area corresponding to the spot on the x-ray film, and the radioactivity determined in a Isocap/300 liquid scintillation counter (Searle Analytic, Inc.).
The percent inhibition of the formation of 5-HETE was determined for each concentration of test compound tested as compared to a control experiment wherein no test compound was added. The concentration and percent inhibition values were plotted on semi log paper and the concentration in which formation of 5-HETE is inhibited by 50% (IC50) was determined by interpolation.

Here are results for 8 compounds from patent publication US4801616A, “Diphenylmethanone compounds and anti-inflammatory use thereof” (Eli Lilly and Company, priority 1986, dated 1989).

The structures appear in SMILES notation.

As for `CCCc1c(O)ccc(C(=O)c2ccccc2O)c1O` [Example 4, (2,4-Dihydroxy-3-propylphenyl)(2hydroxyphenyl)methanone], 50 mg/kg produced 47% inhibition in vivo in assay [1]. The compound also had an IC50 at 5-lipoxygenase of 5880 nM.
Take `COc1ccccc1C(=O)c1ccc(OC)c(C)c1O` [Example 9, (2-hydroxy-4-methoxy-3-methylphenyl)(2-methoxyphenyl)methanone]: the inhibition in vivo at 50 mg/kg in assay [1] was 0%. Also, the IC50 against 5-lipoxygenase was 3670 nM.
In assay [1], `CCCc1c(OCCCCC#N)ccc(C(=O)c2ccccc2O)c1O` [Example 11, 5-[3-Hydroxy-4-(2-hydroxybenzoyl)-2-propylphenoxy]pentanenitrile] yielded an inhibition in vivo at 10 mg/kg of 0% and an inhibition in vivo at 25 mg/kg of 31%. The half-inhibitory concentration (IC50) against 5-lipoxygenase is 2830 nM.
As for `CCCc1c(OCCCCc2nnn[nH]2)ccc(C(=O)c2ccccc2OC)c1O` [Example 23, (2-Hydroxy-3-propyl-4-[4-(1H-tetrazol-5-yl)butoxy]phenyl)(2-methoxyphenyl)methanone], in assay [1], the inhibition in vivo at 3 mg/kg is 33%, the inhibition in vivo at 10 mg/kg is 67% and 25 mg/kg produced 69% inhibition in vivo. On 5-lipoxygenase, the IC50 was 1710 nM.
In assay [1], `CCCc1c(OCCCCCCc2nnn[nH]2)ccc(C(=O)c2ccccc2O)c1O` [Example 25, (2-Hydroxyphenyl)[2-hydroxy-3-propyl-4-([6-(1H-tetrazol-5-yl)hexyl]oxy)phenyl]methanone] came in with an inhibition in vivo at 25 mg/kg of 39%. On 5-lipoxygenase, this compound had an IC50 of 11800 nM.
In assay [1], `CCCc1c(OCCCCc2nnn[nH]2)ccc(C(=O)c2ccccc2O)c1O` [Example 26, (2-Hydroxyphenyl)(2-hydroxy-3-propyl-4[4-(1H-tetrazol-5-yl)butoxy]phenyl)methanone] had an inhibition in vivo at 3 mg/kg of 65%, an inhibition in vivo at 25 mg/kg of 71% and an inhibition in vivo at 30 mg/kg of 62%. For the same compound, the IC50 against 5-lipoxygenase was 1260 nM.
In assay [1], `CCCc1c(OCCCCCCCCc2nnn[nH]2)ccc(C(=O)c2ccccc2O)c1O` [Example 28, (2-Hydroxyphenyl)[2-hydroxy-3-propyl-4-([8-(1H-tetrazol-5-yl)octyl]oxy)phenyl]methanone] showed an inhibition in vivo at 3 mg/kg of 65%, an inhibition in vivo at 10 mg/kg of 48% and an inhibition in vivo at 30 mg/kg of 95%. This compound showed a concentration for half-maximal inhibition (IC50) at 5-lipoxygenase of 1330 nM.
With `CCCc1c(OCCCCC(=O)O)ccc(C(=O)c2ccccc2O)c1O` [Example 30, 5-[3-Hydroxy-4-(2-hydroxybenzoyl)-2-propylphenoxy]pentanoic acid], in assay [1], the inhibition in vivo at 50 mg/kg worked out at 24%. The compound further returned an inhibition at 10 µg/mL at 5-lipoxygenase (percent inhibition at 10 μg/ml) of 37%.

Usually inhibition in vivo stands for the share of the control response that was lost under treatment. Higher therefore signals strong suppression. The term IC50 denotes the concentration needed to halve the response being measured. A higher IC50 goes with lower potency. Usually inhibition stands for how much of the control response was suppressed.
